US8809331B2 (Genentech, Inc., priority 2011, dated 2014)

What follows are compounds tested against T1, LRRK2 (Homo sapiens, UniProt Q5S007, G2019S) (assay: In Vitro LRRK2 LabChip Assay (LRRK2 Ki)). Conditions: Table 5 compounds (formula I).
T1 construct: purchased Invitrogen PV4882
Format: biochemical
Description: In Vitro LRRK2 LabChip Assay
This assay was used to determine a compound's potency in inhibiting activity of LRRK2 by determining, Kiapp, IC50, or percent inhibition values. In a polypropylene plate, LRRK2, fluorescently-labeled peptide substrate, ATP and test compound were incubated together. Using a LabChip 3000 (Caliper Life Sciences), after the reaction the substrate was separated by capillary electrophoresis into two populations: phosphorylated and unphosphorylated. The relative amounts of each were quantitated by fluorescence intensity. LRRK2 Ki was determined according to the equation: Y=V0*(1−((x+Ki*(1+S/Km)+Et)/(2*Et)−(((x+Ki*(1+S/Km)+Et)^2−(4*Et*x))^0.5)/(2*Et))). Ki values in Table 4 and elsewhere herein are shown in μM.
Assay conditions and materials used were as follows:
LRRK2 Wild type in 5 mM MgCl2: 15 nM (Invitrogen lot #500607F)
Kinase reaction time: 2 hours
Wild type in 5 mM MgCl2: 80 μM
Solid Support: Black 50 μL volume polypropylene 384 well plate (MatriCal cat # MP101-1-PP)
Kinase: LRRK2 G2019S (Invitrogen cat #PV4882). • LRRK2 Wild type (Invitrogen cat #PV4874).
Substrate: 5FAM-[…]-CONH2
Non-binding plate: 384 well clear V-bottom polypropylene plates (Greiner cat #781280).
ATP: 10 mM ATP (Cell Signaling cat #9804).
Coating Reagent #3: Coating Reagent #3 (Caliper).
Complete Reaction Buffer: H2O/25 mM Tris, pH 8.0/5 mM MgCl2/2 mM DTT/0.01% Triton X-100.
Stop Solution: H2O/100 mM HEPES, pH 7.2/0.015% Brij-35/0.2% Coating Reagent #3/20 mM EDTA.
Separation Buffer: H2O/100 mM HEPES, pH 7.2/0.015% Brij-35/0.1% Coating Reagent #3/1:200 Coating Reagent #8/10 mM EDTA/5% DMSO.
Compound Plate Preparation:
For serial dilutions, 34.6 μl DMSO was added to columns 3-24. For the assay controls, 37.5 μl DMSO was added to columns 1 and 2 of rows A and P. a, d and 50 μl 25 μM G-028831 (Staurosporine) was added to columns 1 and 2, row B. For the samples: to start at 100 μM, 37.5 μl DMSO was to columns 1 and 2, then 12.5 μl 10 mM compound; to start at 10 μM, 78 μl DMSO was added to columns 1 & 2, then 2 μl 10 mM compound; and to start at 1 μM, 25 μM compound (2 μl 10 mM cmpd+798 μl DMSO) was added to empty columns 1 and 2. A Precision instrument was used to perform 1:3.16 serial dilutions (“PLK_BM_serial_halflog”).
ATP was diluted to 282.1 μM in Complete Kinase Buffer (final concentration was 130 μM).
Total and Blank Preparation:
In Complete Reaction Buffer, substrate was diluted to 4 μM. Equal volumes of Complete Reaction Buffer and 4 μM substrate were combined to obtain the blank. Equal volumes of Complete Reaction Buffer and 4 μM substrate were combined and to the combined solution was added 2× final LRRK2 concentration.
To a 50 μl polypropylene plate, 5 μl/well buffer/substrate was added by hand to Blank wells. A Biomek FX was used to start the kinase reaction (“PLK SAR 23 ATP”). The following were added to the appropriate wells:
5 μl/well compound/ATP in Assay Plate;
5 μl/well kinase/substrate in Assay Plate;
The plate was incubated for 2 hours in the dark. Biomek FX was used to stop the kinase reaction (“PLK Stop”), and 10 μl/well Stop solution was added to the Assay Plate. Results were read on the LabChip 3000.
The LabChip 3000 was run using the job “LRRK2 IC50” with the following job settings:
Downstream voltage: −500 V
Upstream voltage: −2350 V
Post sample buffer sip time: 75 seconds
Post dye buffer sip time: 75 seconds
Final delay time: 200 seconds

T1 sequence (Q5S007 whole entry G2019S): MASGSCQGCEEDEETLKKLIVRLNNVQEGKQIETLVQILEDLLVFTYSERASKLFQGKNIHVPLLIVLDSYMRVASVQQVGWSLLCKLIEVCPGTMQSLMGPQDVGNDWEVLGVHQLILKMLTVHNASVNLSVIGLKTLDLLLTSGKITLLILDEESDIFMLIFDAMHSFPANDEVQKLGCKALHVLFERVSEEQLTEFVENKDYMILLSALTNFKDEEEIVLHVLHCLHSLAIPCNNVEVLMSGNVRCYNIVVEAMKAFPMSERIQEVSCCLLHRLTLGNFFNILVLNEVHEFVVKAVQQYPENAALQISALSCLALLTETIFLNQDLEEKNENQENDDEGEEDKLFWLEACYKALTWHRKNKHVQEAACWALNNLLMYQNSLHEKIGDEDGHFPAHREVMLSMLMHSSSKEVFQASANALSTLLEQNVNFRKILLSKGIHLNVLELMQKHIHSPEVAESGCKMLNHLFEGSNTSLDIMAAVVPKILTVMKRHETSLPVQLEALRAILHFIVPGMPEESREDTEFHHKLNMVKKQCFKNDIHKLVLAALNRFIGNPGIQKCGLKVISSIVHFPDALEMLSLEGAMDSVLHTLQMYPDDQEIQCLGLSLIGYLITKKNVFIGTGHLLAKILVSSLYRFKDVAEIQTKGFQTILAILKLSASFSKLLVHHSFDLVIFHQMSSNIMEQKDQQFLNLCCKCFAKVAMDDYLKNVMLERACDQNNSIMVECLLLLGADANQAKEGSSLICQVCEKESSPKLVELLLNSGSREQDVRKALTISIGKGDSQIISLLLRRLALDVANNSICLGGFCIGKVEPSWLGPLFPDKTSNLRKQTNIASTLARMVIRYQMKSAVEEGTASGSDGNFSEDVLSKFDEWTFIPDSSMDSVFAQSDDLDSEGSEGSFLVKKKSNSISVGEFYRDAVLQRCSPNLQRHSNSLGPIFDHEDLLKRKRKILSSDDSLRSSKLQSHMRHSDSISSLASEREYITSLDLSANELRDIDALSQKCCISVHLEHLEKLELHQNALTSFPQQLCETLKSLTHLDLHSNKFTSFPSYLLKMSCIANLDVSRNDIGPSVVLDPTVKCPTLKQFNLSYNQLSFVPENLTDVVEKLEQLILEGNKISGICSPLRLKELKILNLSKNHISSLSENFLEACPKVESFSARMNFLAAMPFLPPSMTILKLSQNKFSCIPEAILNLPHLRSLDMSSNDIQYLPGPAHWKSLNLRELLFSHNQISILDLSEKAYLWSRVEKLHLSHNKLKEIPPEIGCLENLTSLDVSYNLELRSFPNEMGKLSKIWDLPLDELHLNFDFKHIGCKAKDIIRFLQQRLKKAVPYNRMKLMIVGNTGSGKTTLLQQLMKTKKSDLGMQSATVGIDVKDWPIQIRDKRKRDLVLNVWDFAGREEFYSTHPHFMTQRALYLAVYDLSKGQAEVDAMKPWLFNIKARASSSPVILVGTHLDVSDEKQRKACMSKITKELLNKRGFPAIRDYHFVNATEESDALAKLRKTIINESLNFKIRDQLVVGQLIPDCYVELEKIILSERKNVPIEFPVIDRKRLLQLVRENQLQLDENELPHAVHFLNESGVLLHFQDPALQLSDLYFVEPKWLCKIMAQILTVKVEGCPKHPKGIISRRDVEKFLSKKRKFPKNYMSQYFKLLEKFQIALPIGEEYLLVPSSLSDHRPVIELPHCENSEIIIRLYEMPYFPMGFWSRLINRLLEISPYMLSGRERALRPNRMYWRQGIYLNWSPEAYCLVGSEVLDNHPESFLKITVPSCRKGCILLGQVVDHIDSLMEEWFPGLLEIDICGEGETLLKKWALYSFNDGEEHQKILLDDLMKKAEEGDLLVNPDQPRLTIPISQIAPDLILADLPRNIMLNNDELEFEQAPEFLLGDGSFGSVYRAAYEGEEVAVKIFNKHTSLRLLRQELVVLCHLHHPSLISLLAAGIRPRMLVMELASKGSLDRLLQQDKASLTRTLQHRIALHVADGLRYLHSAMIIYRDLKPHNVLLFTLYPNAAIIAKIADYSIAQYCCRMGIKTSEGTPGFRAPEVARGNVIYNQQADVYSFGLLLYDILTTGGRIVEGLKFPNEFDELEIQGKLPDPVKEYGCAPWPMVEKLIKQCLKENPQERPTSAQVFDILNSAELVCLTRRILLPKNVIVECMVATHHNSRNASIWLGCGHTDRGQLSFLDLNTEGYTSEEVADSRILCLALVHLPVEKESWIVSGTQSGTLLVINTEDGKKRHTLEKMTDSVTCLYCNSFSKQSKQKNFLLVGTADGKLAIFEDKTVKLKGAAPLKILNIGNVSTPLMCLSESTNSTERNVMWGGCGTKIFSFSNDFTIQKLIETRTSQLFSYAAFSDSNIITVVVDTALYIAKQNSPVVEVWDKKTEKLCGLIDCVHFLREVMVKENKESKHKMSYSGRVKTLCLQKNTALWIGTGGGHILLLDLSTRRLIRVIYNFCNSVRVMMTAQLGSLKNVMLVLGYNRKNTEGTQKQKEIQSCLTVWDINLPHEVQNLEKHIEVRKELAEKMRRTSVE

SMILES	Ki [nM]
COc1cc(C(=O)N2CCOCC2)c(F)cc1Nc1ncc(C(F)(F)F)c(N2CCC2)n1 [Compound 26, [4-(4-Azetidin-1-yl-5-trifluoromethyl-pyrimidin-2-ylamino)-2-fluoro-5-methoxy-phenyl]-morpholin-4-yl-methanone]	31.5
CNc1nc(Nc2cc(OC)c(C(=O)NCC(C)(C)O)cc2F)ncc1C(F)(F)F [Compound 27, 5-Fluoro-N-(2-hydroxy-2-methyl-propyl)-2-methoxy-4-(4-methylamino-5-trifluoromethyl-pyrimidin-2-ylamino)-benzamide]	11.7
CCNc1nc(Nc2cc(OC)c(C(=O)NCC(C)(C)O)cc2F)ncc1C(F)(F)F [Compound 28, 4-(4-Ethylamino-5-trifluoromethyl-pyrimidin-2-ylamino)-5-fluoro-N-(2-hydroxy-2-methyl-propyl)-2-methoxy-benzamide]	6.42
CNc1nc(Nc2cc(OC)c(C(=O)N(C)CC(C)(C)O)cc2F)ncc1C(F)(F)F [Compound 29, 5-Fluoro-N-(2-hydroxy-2-methyl-propyl)-2-methoxy-N-methyl-4-(4-methylamino-5-trifluoromethyl-pyrimidin-2-ylamino)-benzamide]	19.5
CCNc1nc(Nc2cc(OC)c(C(=O)N(C)CC(C)(C)O)cc2F)ncc1C(F)(F)F [Compound 30, 4-(4-Ethylamino-5-trifluoromethyl-pyrimidin-2-ylamino)-5-fluoro-N-(2-hydroxy-2-methyl-propyl)-2-methoxy-N-methyl-benzamide]	7.07
CNc1nc(Nc2cc(F)c(C(=O)NCC(C)(C)O)cc2OC)ncc1C(F)(F)F [Compound 35, 2-Fluoro-N-(2-hydroxy-2-methyl-propyl)-5-methoxy-4-(4-methylamino-5-trifluoromethyl-pyrimidin-2-ylamino)-benzamide]	4.36
CNc1nc(Nc2cc(F)c(C(=O)N3C[C@H](F)[C@@H](F)C3)cc2OC)ncc1C(F)(F)F [Compound 36, ((3S,4S)-3,4-Difluoro-pyrrolidin-1-yl)-[2-fluoro-5-methoxy-4-(4-methylamino-5-trifluoromethyl-pyrimidin-2-ylamino)-phenyl]-methanone]	4.42
CCNc1nc(Nc2cc(F)c(C(=O)NC)cc2OC)ncc1C(F)(F)F [Compound 37, 4-(4-Ethylamino-5-trifluoromethyl-pyrimidin-2-ylamino)-2-fluoro-5-methoxy-N-methyl-benzamide]	1.31
CNc1nc(Nc2ccc(C(=O)NCC(C)(C)O)c(F)c2OC)ncc1C(F)(F)F [Compound 38, 2-Fluoro-N-(2-hydroxy-2-methyl-propyl)-3-methoxy-4-(4-methylamino-5-trifluoromethyl-pyrimidin-2-ylamino)-benzamide]	11.6
CNc1nc(Nc2cc(OC)c(C(=O)N3CCC(F)(F)C3)cc2OCCF)ncc1C(F)(F)F [Compound 39, (3,3-Difluoro-pyrrolidin-1-yl)-[5-(2-fluoro-ethoxy)-2-methoxy-4-(4-methylamino-5-trifluoromethyl-pyrimidin-2-ylamino)-phenyl]-methanone]	1.46
CNc1nc(Nc2cc(OC)c(C(=O)N3CC4(CCO4)C3)cc2Cl)ncc1C(F)(F)F [Compound 40, [5-Chloro-2-methoxy-4-(4-methylamino-5-trifluoromethyl-pyrimidin-2-ylamino)-phenyl]-(1-oxa-6-aza-spiro[3.3]hept-6-yl)-methanone]	2.76
COc1cc(C(=O)NCC(C)(C)O)c(F)cc1Nc1ncc(C(F)(F)F)c(NC2CC2)n1 [Compound 45, 4-(4-Cyclopropylamino-5-trifluoromethyl-pyrimidin-2-ylamino)-2-fluoro-N-(2-hydroxy-2-methyl-propyl)-5-methoxy-benzamide]	0.31
CCNc1nc(Nc2ccc(C(=O)NC(C)(C)C)cc2OC)ncc1C#N [Compound 46, N-tert-Butyl-4-(5-cyano-4-ethylamino-pyrimidin-2-ylamino)-3-methoxy-benzamide]	3.03

More lines, now with the values ahead:

Ki [nM]	SMILES
0.507	COc1cc(C(=O)N2CCOCC2)c(F)cc1Nc1ncc(C(F)(F)F)c(NC2CC2)n1 [Compound 25, [4-(4-Cyclopropylamino-5-trifluoromethyl-pyrimidin-2-ylamino)-2-fluoro-5-methoxy-phenyl]-morpholin-4-yl-methanone]
9.48	CCNc1nc(Nc2cc(F)c(C(=O)N3CCOCC3)cc2F)ncc1C(F)(F)F [Compound 31, [4-(4-Ethylamino-5-trifluoromethyl-pyrimidin-2-ylamino)-2,5-difluoro-phenyl]-morpholin-4-yl-methanone]
3.49	COc1cc(C(=O)N2CCOCC2)c(F)cc1Nc1ncc(C(F)(F)F)c(NC(C)C)n1 [Compound 32, [2-Fluoro-4-(4-isopropylamino-5-trifluoromethyl-pyrimidin-2-ylamino)-5-methoxy-phenyl]-morpholin-4-yl-methanone]
114	CNc1nc(Nc2ccc(C(=O)N3CCOCC3)c(C)c2OC)ncc1C(F)(F)F [Compound 33, [3-Methoxy-2-methyl-4-(4-methylamino-5-trifluoromethyl-pyrimidin-2-ylamino)-phenyl]-morpholin-4-yl-methanone]
1.3	CCNc1nc(Nc2cc(F)c(C(=O)N3CC4(CCO4)C3)cc2OC)ncc1C(F)(F)F [Compound 34, [4-(4-Ethylamino-5-trifluoromethyl-pyrimidin-2-ylamino)-2-fluoro-5-methoxy-phenyl]-(1-oxa-6-aza-spiro[3.3]hept-6-yl)-methanone]
2.99	CCNc1nc(Nc2ccc(C(=O)N3CCOCC3)c(F)c2F)ncc1C(F)(F)F [Compound 41, [4-(4-Ethylamino-5-trifluoromethyl-pyrimidin-2-ylamino)-2,3-difluoro-phenyl]-morpholin-4-yl-methanone]
0.31	COc1cc(C(=O)N2CCOCC2)c(C)cc1Nc1ncc(C(F)(F)F)c(NC2CC2)n1 [Compound 42, [4-(4-Cyclopropylamino-5-trifluoromethyl-pyrimidin-2-ylamino)-5-methoxy-2-methyl-phenyl]-morpholin-4-yl-methanone]
0.832	CCNc1nc(Nc2cc(OC)c(C(=O)N3CC4(COC4)C3)cc2Cl)ncc1C(F)(F)F [Compound 43, [5-Chloro-4-(4-ethylamino-5-trifluoromethyl-pyrimidin-2-ylamino)-2-methoxy-phenyl]-(2-oxa-6-aza-spiro[3.3]hept-6-yl)-methanone]
0.31	CCNc1nc(Nc2cc(C)c(C(=O)N3CCOCC3)cc2OC)ncc1C(F)(F)F [Compound 44, [4-(4-Ethylamino-5-trifluoromethyl-pyrimidin-2-ylamino)-5-methoxy-2-methyl-phenyl]-morpholin-4-yl-methanone]
5.98	CNc1nc(Nc2ccc(C(=O)N3CCOCC3)cc2OC(F)F)ncc1C(F)(F)F [Compound 47, [3-Difluoromethoxy-4-(4-methylamino-5-trifluoromethyl-pyrimidin-2-ylamino)-phenyl]-morpholin-4-yl-methanone]
3.48	CNc1nc(Nc2cc(F)c(C(=O)N3CCOCC3)cc2OCCF)ncc1C(F)(F)F [Compound 48, [2-Fluoro-5-(2-fluoro-ethoxy)-4-(4-methylamino-5-trifluoromethyl-pyrimidin-2-ylamino)-phenyl]-morpholin-4-yl-methanone]
